# Test results reported in patent US20110281854A1, “MORPHOLINE COMPOUNDS” (Pfizer Inc, priority 2010, published 2011).
# Target: T1, MR (Homo sapiens, UniProt P08235)
# T1 construct: expressed in transfected cells; host or cells: Huh7 human liver cells (ATCC), transient transfection with FuGENE 6
# T1 sequence (P08235 726-964 limits assumed): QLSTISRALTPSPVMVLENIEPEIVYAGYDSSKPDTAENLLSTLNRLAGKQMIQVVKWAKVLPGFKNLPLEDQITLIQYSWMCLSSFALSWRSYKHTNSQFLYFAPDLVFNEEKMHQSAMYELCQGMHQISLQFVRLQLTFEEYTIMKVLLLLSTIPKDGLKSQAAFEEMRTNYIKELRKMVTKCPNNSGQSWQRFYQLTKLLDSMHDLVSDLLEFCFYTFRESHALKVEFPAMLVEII
# Experiment: Cell-based reporter assay (Gal4-MR-LBD luciferase, antagonist mode)
# Conditions: not given
# Experimental: To measure the ability of test compound in the present invention to modulate the activity of MR (agonize, antagonize, partially agonize, partially antagonize), bioassays were performed that measured the modulation of reporter gene expression. Cells were transiently transfected with a luciferase reporter gene under the control of a Gal4 response element (Gal4-RE-luc) and a plasmid containing the Gal4 DNA binding domain fused to the MR ligand binding domain (Gal4-MR-LBD). Agonists can bind to and activate the MR-LBD, which activates the expression of the luciferase reporter gene through interaction with the Gal4 response element. […] Antagonists can compete for binding to the NHR-LBD and decrease the agonist-induced transcriptional activity of the reporter gene. Therefore, measurement of luciferase activity allowed quantitative determinations of the reporter transcription in the presence of either agonists or competitive antagonists.
# The final concentration of DMSO in the test plate was 0.5%. Following an overnight incubation with compound, 25 μL of Steady-Glow™ lysis buffer with luciferase substrate (Promega Corporation, E2550) was added directly to the cells. After a 30-minute incubation to completely lyse the cells, the microplates were counted in an Envision™ Multilabel Reader (Perkin Elmer) in single photon counting mode.
row,Compound,IC50 [nM]
1,"C[C@@H]1CN(c2ccc3c(n2)NC(=O)C(F)(F)O3)[C@H](c2ccccc2)CO1 [Example 30, 2,2-difluoro-6-((2R,5R)-2-methyl-5-phenylmorpholino)-2H-pyrido[3,2-b][1,4]oxazin-3(4H)-one]",9560
2,"Cc1cc(N2CCOC[C@H]2c2ccccc2)cc2c1OCC(=O)N2 (single isomer, unassigned) [Example 22]",885
3,"O=C1COc2ccc(N3CCOC4(CCOc5ccccc54)C3)cc2N1 (stereo not shown) [Example 73, 6-(spiro[chroman-4,2′-morpholine]-4′-yl)-2H-benzo[b][1,4]oxazin-3(4H)-one]",6340
4,"C[C@H]1CN(c2ncc3c(n2)NC(=O)CO3)[C@@H](c2cccc(F)c2)CO1 (racemic) [Example 51, (±)-2-(cis-5-(3-fluorophenyl)-2-methylmorpholino)-6H-pyrimido[5,4-b][1,4]oxazin-7(8H)-one]",537
5,"C[C@H]1CN(c2cc3c(cn2)OCC(=O)N3)[C@@H](c2ccccc2F)CO1 (racemic) [Example 32, (±)-7-(cis-5-(2-fluorophenyl)-2-methylmorpholino)-1H-pyrido[3,4-b][1,4]oxazin-2(3H)-one]",111
6,"N#CC[C@@H]1CN(c2ccc3c(n2)NC(=O)CO3)[C@H](c2ccccc2)CO1 [Example 40, 2-((2R,5R)-4-(3-oxo-3,4-dihydro-2H-pyrido[3,2-b][1,4]oxazin-6-yl)-5-phenylmorpholin-2-yl)acetonitrile]",97.9
7,"CC1(c2ccccc2)CN(c2ccc3c(c2)NC(=O)CO3)CCO1 (stereo not shown) [Example 38, 6-(2-methyl-2-phenylmorpholino)-2H-benzo[b][1,4]oxazin-3(4H)-one]",4970
8,"C[C@@H]1CN(c2ccc3c(n2)NC(=O)CO3)[C@H](C)CO1 [Example 71, 6-((2R,5R)-2,5-dimethylmorpholino)-2H-pyrido[3,2-b][1,4]oxazin-3(4H)-one]",1930
9,"O=C1COc2ccc(N3C[C@@H](CF)OC[C@H]3c3ccccc3)nc2N1 [Example 39, 6-((2S,5R)-2-(fluoromethyl)-5-phenylmorpholino)-2H-pyrido[3,2-b][1,4]oxazin-3(4H)-one]",86.7
10,"C[C@@H]1CN(c2ccc3c(n2)NC(=O)CO3)[C@H](c2ccccc2Cl)CO1 (single isomer, unassigned) [Example 67]",135
11,"C[C@@H]1CN(c2ccc3c(n2)NCCO3)[C@H](c2ccccc2)CO1 [Example 6, 6-[(2R,5R)-2-methyl-5-phenylmorpholin-4-yl]-3,4-dihydro-2H-pyrido[3,2-b][1,4]oxazine]",977
12,"C[C@@H]1CN(c2cc3c(cn2)OCC(=O)N3)[C@H](c2ccc(F)cc2)CO1 [Example 61, 7-((2R,5R)-5-(4-fluorophenyl)-2-methylmorpholino)-1H-pyrido[3,4-b][1,4]oxazin-2(3H)-one]",646
13,"O=C1COc2ccc(N3CCOC(c4ccccc4)C3c3ccccc3)cc2N1 (stereo not shown) [Example 75, 6-(2,3-diphenylmorpholino)-2H-benzo[b][1,4]oxazin-3(4H)-one]",3080
14,"O=C1COc2cnc(N3C[C@@H](C4CC4)OC[C@H]3c3ccccc3)nc2N1 [Example 44, 2-((2R,5R)-2-cyclopropyl-5-phenylmorpholino)-6H-pyrimido[5,4-b][1,4]oxazin-7(8H)-one]",1230
15,"C[C@@H]1CN(c2cc3c(cn2)OCC(=O)N3)[C@H](c2ccccc2)CO1 [Example 46, 7-((2R,5R)-2-methyl-5-phenylmorpholino)-1H-pyrido[3,4-b][1,4]oxazin-2(3H)-one]",252
16,"C[C@H]1CN(c2cc3c(cn2)OCC(=O)N3)[C@@H](c2ccccc2Cl)CO1 (racemic) [Example 65, (±)-7-(cis-5-(2-chlorophenyl)-2-methylmorpholino)-1H-pyrido[3,4-b][1,4]oxazin-2(3H)-one]",631
17,"O=C1COc2ccc(N3CCOCC34CCc3ccccc34)nc2N1 (stereo not shown) [Example 36, 6-(2,3-dihydrospiro[indene-1,3′-morpholin]-4′-yl)-2H-pyrido[3,2-b][1,4]oxazin-3(4H)-one]",1740
18,"C[C@@H]1CN(c2nc3c(cc2C#N)OCC(=O)N3)[C@H](c2ccccc2)CO1 [Example 60, 6-((2R,5R)-2-methyl-5-phenylmorpholino)-3-oxo-3,4-dihydro-2H-pyrido[3,2-b][1,4]oxazine-7-carbonitrile]",9560
19,"C[C@@H]1CN(c2ncc3c(n2)NC(=O)CO3)[C@H](c2ccccc2)CO1 [Example 2, 2-((2R,5R)-2-methyl-5-phenylmorpholino)-6H-pyrimido[5,4-b][1,4]oxazin-7(8H)-one]",266

row,Compound,IC50 [nM]
1,"C[C@@H]1CN(c2ncc3c(n2)NC(=O)CO3)[C@H](c2ccccc2F)CO1 (single isomer, unassigned) [Example 35]",104
2,"C[C@@H]1CN(c2ccc3c(n2)NC(=O)CO3)[C@H](c2ccc(F)cc2F)CO1 [Example 52, 6-((2R,5R)-5-(2,4-difluorophenyl)-2-methylmorpholino)-2H-pyrido[3,2-b][1,4]oxazin-3(4H)-one]",278
3,"C[C@@H]1CN(c2ccc3ncc(=O)[nH]c3c2)[C@H](c2ccccc2)CO1 [Example 3, 7-((2R,5R)-2-methyl-5-phenylmorpholino)quinoxalin-2(1H)-one]",157
4,"C[C@@H]1CN(c2ccc3c(n2)NC(=O)CO3)[C@H](c2ccccc2)[C@H](C)O1 [Example 69, 6-((2S,3R,6R)-2,6-dimethyl-3-phenylmorpholino)-2H-pyrido[3,2-b][1,4]oxazin-3(4H)-one]",204
5,"C[C@H]1CN(c2ccc3c(n2)NC(=O)CO3)[C@@H]2c3ccccc3C[C@@H]2O1 (single isomer, unassigned) [Example 24]",1770
6,"C[C@@H]1CN(c2ccc3c(n2)NC(=O)CO3)C[C@H](C)O1 [Example 25, 6-(cis-2,6-dimethylmorpholino)-2H-pyrido[3,2-b][1,4]oxazin-3(4H)-one]",798
7,"C[C@@H]1CN(c2cnc3c(c2)NC(=O)CO3)[C@H](c2ccccc2)CO1 [Example 58, 7-((2R,5R)-2-methyl-5-phenylmorpholino)-1H-pyrido[2,3-b][1,4]oxazin-2(3H)-one]",2990
8,"O=C1COc2ccc(N3CC4(COC4)OC[C@H]3c3ccccc3)nc2N1 [Example 70, (R)-6-(7-phenyl-2,5-dioxa-8-azaspiro[3.5]nonan-8-yl)-2H-pyrido[3,2-b][1,4]oxazin-3(4H)-one]",628
9,"C[C@@H]1CN(c2ccc3c(n2)NC(=O)CO3)[C@@H]2c3ccccc3C[C@@H]2O1 (single isomer, unassigned) [Example 23]",284
10,"C[C@@H]1CN(c2ccc3c(n2)NC(=O)CO3)CCO1 (single isomer, unassigned) [Example 19]",5610
11,"C[C@@H]1CN(c2cc3c(cn2)OCC(=O)N3)[C@H](c2ccccc2F)CO1 (single isomer, unassigned) [Example 33]",53.9
12,"O=C1COc2ccc(N3CCOC[C@@H]3c3ccccc3)cc2N1 [Example 41, (S)-6-(3-phenylmorpholino)-2H-benzo[b][1,4]oxazin-3(4H)-one]",5230
13,"C[C@@H]1CN(c2cc3c(cn2)OCC(=O)N3)[C@H](c2ccccc2)[C@H](C)O1 [Example 43, 7-((2S,3R,6R)-2,6-dimethyl-3-phenylmorpholino)-1H-pyrido[3,4-b][1,4]oxazin-2(3H)-one]",395
14,"CC1CN(c2ccc3c(n2)NC(=O)CO3)CCO1 (racemic) [Example 17, 6-(2-methylmorpholino)-2H-pyrido[3,2-b][1,4]oxazin-3(4H)-one]",3050
15,"Cc1cc(N2C[C@@H](C)OC[C@H]2c2ccccc2)nc2c1OCC(=O)N2 [Example 5, 8-methyl-6-((2R,5R)-2-methyl-5-phenylmorpholino)-2H-pyrido[3,2-b][1,4]oxazin-3(4H)-one]",174
16,"C[C@@H]1CN(c2cccc(NS(C)(=O)=O)n2)[C@H](c2ccccc2)CO1 [Example 27, N-(6-((2R,5R)-2-methyl-5-phenylmorpholino)pyridin-2-yl)methanesulfonamide]",1230
17,"C[C@@H]1CN(c2ncc3c(n2)NC(=O)CO3)[C@H](c2ccc(F)cc2)CO1 [Example 55, 2-((2R,5R)-5-(4-fluorophenyl)-2-methylmorpholino)-6H-pyrimido[5,4-b][1,4]oxazin-7(8H)-one]",485
18,"CC[C@@H]1CN(c2ccc3c(n2)NC(=O)CO3)C[C@H](CC)O1 [Example 57, 6-(cis-2,6-diethylmorpholino)-2H-pyrido[3,2-b][1,4]oxazin-3(4H)-one]",4690
19,"C[C@@H]1CN(c2ccc3c(n2)NC(=O)CO3)[C@H](c2ccccc2F)CO1 (single isomer, unassigned) [Example 8]",33.4

# Same assay, conditions: antagonist mode; decrease of EC80 aldosterone signal by 50%; Huh7 cells transfected with Gal4-MR-LBD and Gal4-RE-luc
row,Compound,IC50 [nM]
1,"(±)-2-(cis-5-(2-methoxyphenyl)-2-methylmorpholino)-6H-pyrimido[5,4-b][1,4]oxazin-7(8H)-one [Example 56]",5330
2,"6-((2S,5R)-2-(methoxymethyl)-5-phenylmorpholino)-2H-pyrido[3,2-b][1,4]oxazin-3(4H)-one [Example 49]",358
